According to patent publication US20230391776A1, “AMIDE OXAZOLE COMPOUND” (MEDSHINE DISCOVERY INC., priority 2020, published 2023):

Columns and labels:
[1] = tested on: OCI-LY3 cell line; test: OCI-LY3 cell proliferation (CTG); format: cell-based; conditions: Homo sapiens, 72 hours
Experimental: The tumor cell line OCI-LY3 was used to detect the effect of the compound of the disclosure on inhibiting tumor cell proliferation in vitro.
The tumor cell line used in this experiment was provided by Nanjing Cobioer Biotechnology Co., Ltd. See Table 6 below for specific information.
The OCI-LY3 cell line was cultured in the corresponding medium at 37° C. and 5% CO2, and the logarithmic growth period cells were used for experimental planking. The cells were collected and centrifuged at 800 rpm for 5 minutes, and the culture medium was re-suspended and spread in a 96-well plate. After being cultured overnight in 37° C., 5% CO2 incubator, drugs with different concentration gradients (10 μL of prepared diluent of test compound was added) were added, and incubated in 37° C., 5% CO2 incubator for 72 hours. The cell culture plate was incubated with CTG reagent at room temperature in the dark for 30 minutes and return to room temperature. CTG solution was added into the biosafety cabinet in the dark 100 μL/well, and was shaken and mixed evenly on plate shaker in the dark for 2 minutes, and incubated at room temperature in the dark for 10 minutes. The luminous value was read and recorded with Perkin Elmer Envision instrument.
The luminous value of the blank control group was subtracted from the luminous value measured at each drug concentration, the ratio of this value to DMSO group was taken as the cell inhibition rate (%). GraphPad software was used, the logarithm of drug concentration (log drug concentration) versus inhibition rate was plotted, and the IC50 value and 95% confidence value were automatically fitted and calculated by log (inhibitor) vs. response-variable slop (four parameters) algorithm of nonlinear regression by software.

[2] = tested on: TMD-8 human diffuse large B lymphoma cells; test: TMD-8 cell proliferation (Cell Titer Glo); format: cell-based; conditions: TMD8, 72 hours
Experimental: (§1) The tumor cell lines OCI-LY10 and TMD-8 were used to detect the effect of the compound of the disclosure on inhibiting tumor cell proliferation in vitro.
TMD-8 human diffuse large B lymphoma cells, from Nanjing Cobioer Biotechnology Co., Ltd
(§2) The compound was diluted with DMSO to a final concentration of 10 mM. The compound was freshly prepared and ready for use.
(§3) a) Logarithmic growth period cells were collected, counted, resuspended with complete culture medium, the cell concentration was adjusted to an appropriate concentration (determined according to the results of cell density optimization test), inoculated on 96-well plates, and 100 μL of cell suspension was added to each well. Cells were incubated in an incubator with 37° C., 100% relative humidity and 5% CO2 for 24 hours.
(§4) b) The compound to be tested was diluted to 50 μM with culture medium and then gradient diluted for 8 times. Cells were added with 25 μL/well. The final concentrations of the compound were from […], 3-fold gradient dilution, with a total of 9 concentration points.
(§5) c) Cells were incubated in an incubator with 37° C., 100% relative humidity and 5% CO2 for 72 hours;
(§6) d) 60 μL of CTG test reagent was added to the culture medium.
(§7) e) Shaked fully and reacted in the dark for 10 min. Luminescence was measured on ENVISION and the inhibition rate was calculated.
(§8) Cell growth inhibition rate %=[(RLUv−RLUs)/(RLUv−RLUb)]×100%

[3] = tested on: OCI-LY10 human diffuse large B lymphoma cells; test: OCI-LY10 cell proliferation (Cell Titer Glo); format: cell-based; conditions: 72 hours
Experimental: as §1
OCI-LY10 human diffuse large B lymphoma cells, from Nanjing Cobioer Biotechnology Co., Ltd
as §2, §3, §4, §5, §6, §7, §8

[4] = target: T1, human IRAK4 (Homo sapiens, UniProt Q9NWZ3); test: In vitro IRAK4 kinase activity, 33P isotope-labeled kinase assay; format: biochemical
T1 construct: purchased Reaction Biology Corp
T1 sequence (Q9NWZ3 1-460): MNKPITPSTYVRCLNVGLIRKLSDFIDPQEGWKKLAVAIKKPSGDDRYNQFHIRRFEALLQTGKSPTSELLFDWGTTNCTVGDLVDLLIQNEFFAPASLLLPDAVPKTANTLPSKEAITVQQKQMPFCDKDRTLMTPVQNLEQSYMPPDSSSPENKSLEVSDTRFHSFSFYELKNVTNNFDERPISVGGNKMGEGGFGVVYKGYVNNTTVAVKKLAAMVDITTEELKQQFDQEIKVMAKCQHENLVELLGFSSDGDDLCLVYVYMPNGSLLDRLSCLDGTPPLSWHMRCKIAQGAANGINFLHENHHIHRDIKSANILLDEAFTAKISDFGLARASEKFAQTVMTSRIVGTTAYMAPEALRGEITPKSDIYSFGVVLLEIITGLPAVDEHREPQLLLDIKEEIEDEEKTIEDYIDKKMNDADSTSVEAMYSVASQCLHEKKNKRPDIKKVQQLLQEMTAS
Experimental: The IC50 values were determined using ^33P isotope-labeled kinase activity assay (Reaction Biology Corp) to evaluate the inhibitory ability of the tested compounds on human IRAK4.
(§9) Buffer conditions: 20 mM Hepes (pH 7.5), 10 mM MgCl2, 1 mM EGTA, 0.02% Brij35, 0.02 mg/mL BSA, 0.1 mM Na3VO4, 2 mM DTT, 1% DMSO.
Test procedure: At room temperature, the tested compound was dissolved in DMSO and a 10 mM solution was prepared for use. The substrate was dissolved in a newly prepared buffer solution, and the tested IRAK4 kinase was added thereto and mixed evenly. The DMSO solution dissolved with the tested compound was added to the above mixed evenly reaction solution using acoustic technique (Echo 550). After incubation for 15 minutes, ^33P-ATP was added to initiate the reaction. The reaction was carried out at room temperature for 120 minutes, and the reaction mixture was dropped on P81 ion exchange filter paper (Whatman #3698-915). The filter paper was washed repeatedly with 0.75% phosphoric acid solution, and the radioactivity of phosphorylated substrate residues on the filter paper was determined. The kinase activity data were expressed by comparing the kinase activity of the group containing the tested compound with the kinase activity of the blank group (only containing DMSO), and the IC50 value was obtained by curve fitting by Prism4 software (GraphPad), the experimental results were shown in Table 2.

[5] = tested on: TNF-α production in THP-1 cells; test: TNF-α ELISA in LPS-stimulated THP-1 cells; format: cell-based; conditions: Homo sapiens, TNF-α in supernatant, 150 ng/mL LPS, 18 hours
Experimental: THP-1 human acute single cell leukemia cells were purchased from ATCC (Cat #TIB-202) and cultured at 37° C. in 5% CO2 incubator. The composition of medium was RPMI1640 (Gibco, Cat #22400-105), and the supplementary compositions were 10% FBS (Gibco, Cat #10091148); 1% PenStrep (Gibco, Cat #15140); 0.05 mM β-mercaptoethanol (Sigma, Cat #M6250).
TNF-α Elisa kit was used to detect the content of TNF-α in cell culture supernatant samples. TNF-α was produced by stimulating THP-1 cells with 150 ng/mL LPS (Sigma, Cat #L6529).
THP-1 cells cultured normally at logarithmic growth period were seeded in a 96-well plate (Corning #3599) at a certain concentration (1*10^5/100 μL) and then put into a cell incubator for incubation. After two hours, 16.7 μL of different concentrations of the compound to be tested (8*final concentration) were added and incubated in an incubator. After one hour, 16.7 μL of 1200 ng/mL LPS was added and incubated in an incubator. After 18 hours, the culture supernatant samples were collected by centrifugation, and the content of TNF-α could be detected by TNF-α Elisa kit. Finally, OD signals (OD450-OD570) were read on envision board reader.
The OD450-OD570 signal value was converted into a percentage inhibition rate.
Inhibition rate %=(ZPE−sample)/(ZPE−HPE)*100.
“HPE” referred to the OD450-OD570 signal value of the control well without LPS stimulated cells, and “ZPE” referred to the OD450-OD570 signal value of the control well with LPS stimulated cells. The IC50 value of the compound was calculated by XLFit in the excel add-in.
Y=Bottom+(Top−Bottom)/(1+(IC50/X)^HillSlope). Equation: […]

[6] = target: T2, human BTK (Homo sapiens, UniProt Q06187); test: In vitro BTK kinase activity, 33P isotope-labeled kinase assay; format: biochemical
T2 construct: purchased Reaction Biology Corp
Experimental: The IC50 values were determined using ^33P isotope-labeled kinase activity assay (Reaction Biology Corp) to evaluate the inhibitory ability of the tested compounds on human BTK.
as §9
Test procedure: At room temperature, the tested compound was dissolved in DMSO and a 10 mM solution was prepared for use. The substrate was dissolved in a newly prepared buffer solution, and the BTK kinase was added thereto and mixed evenly. The compound dissolved in DMSO was added to the kinase reaction mixture through Echo 550 (Acoustic technology; Nanoliter range). After incubation for 20 minutes at room temperature, ^33P-ATP was added to initiate the reaction. The reaction was carried out at room temperature for 2 hours, and the radioactivity of the reaction solution drop was detected by filtration-binding method with P81 ion exchange filter paper. The kinase activity data were expressed by comparing the kinase activity of the group containing the tested compound with the kinase activity of the blank group (only containing DMSO), and the IC50 value was obtained by curve fitting by Prism4 software (GraphPad), the experimental results were shown in Table 3.

[7] = tested on: human diffuse large B lymphoma TMD8 cell subcutaneous xenograft; test: TMD8 subcutaneous xenograft tumor model (WX017 and WX027 study); conditions: 20 mg/kg QD PO, 11th day after administration
Experimental: a) TMD8 cells were cultured in RPMI-1640 medium containing 10% FBS and maintained in a 37° C. saturated humidity incubator with 5% CO2. TMD8 cells in logarithmic period were collected, resuspended in RPMI-1640 basal medium, and Matrigel was added at 1:1, and the cell concentration was adjusted to 4×10^7/mL. Under aseptic conditions, 0.1 mL of cell suspension was inoculated under the skin of the right back of SCID mice, and the inoculation concentration was 4×10^6/0.1 mL/mouse.
When the tumor grew to a certain size, the animals with too large, too small or irregular tumor shape were excluded, and the animals with tumor volume of 108.76-188.11 mm^3 were selected. According to the tumor volume, the animals were divided into 10 groups by random block method, with 6 mice in each group, and the average tumor volume was about 152.11 mm^3. The health status and death of animals were monitored every day, and routine examinations included observing the effects of tumor growth and drug treatment on daily behaviors of animals, such as behavioral activities, food intake and water intake, weight change (weight was measured twice a week), tumor size (tumor volume was measured twice a week), appearance signs or other abnormal conditions.
The formula for calculating tumor volume (TV) was: 1/2×a×b^2, where a and b were the measured length and width of the tumor respectively. The formula for calculating the tumor inhibition rate TGI (%)=[1−(average tumor volume at the end of administration in a treatment group-average tumor volume at the beginning of administration in the treatment group))/(average tumor volume at the end of treatment in solvent control group-average tumor volume at the beginning of treatment in solvent control group)]×100%.
In this study, the experimental data were all expressed by Mean±SEM. Statistical analysis was based on the data of RTV at the end of the experiment and analyzed by IBM SPSS Statistics software. T test was used to analyze the comparison between two groups, and one-way ANOVA was used to analyze the comparison between three or more groups. If the variance was even (there was no significant difference in F value), Tukey's method was used to analyze it, and if the variance was uneven (there was significant difference in F value), Games-Howell method was used to test it. p<0.05 was deemed to a significant difference.

[8] = tested on: human diffuse large B lymphoma TMD8 cell subcutaneous xenograft; test: TMD8 subcutaneous xenograft tumor model (WX009 study); format: in vivo, SCID mouse; conditions: 20 mg/kg QD PO, 18th day after administration
Source text: The formula for calculating the tumor inhibition rate TGI (%)=[1−(average tumor volume at the end of administration in a treatment group-average tumor volume at the beginning of administration in the treatment group))/(average tumor volume at the end of treatment in solvent control group-average tumor volume at the beginning of treatment in solvent control group)]×100%.

T2 sequence (Q06187 whole entry): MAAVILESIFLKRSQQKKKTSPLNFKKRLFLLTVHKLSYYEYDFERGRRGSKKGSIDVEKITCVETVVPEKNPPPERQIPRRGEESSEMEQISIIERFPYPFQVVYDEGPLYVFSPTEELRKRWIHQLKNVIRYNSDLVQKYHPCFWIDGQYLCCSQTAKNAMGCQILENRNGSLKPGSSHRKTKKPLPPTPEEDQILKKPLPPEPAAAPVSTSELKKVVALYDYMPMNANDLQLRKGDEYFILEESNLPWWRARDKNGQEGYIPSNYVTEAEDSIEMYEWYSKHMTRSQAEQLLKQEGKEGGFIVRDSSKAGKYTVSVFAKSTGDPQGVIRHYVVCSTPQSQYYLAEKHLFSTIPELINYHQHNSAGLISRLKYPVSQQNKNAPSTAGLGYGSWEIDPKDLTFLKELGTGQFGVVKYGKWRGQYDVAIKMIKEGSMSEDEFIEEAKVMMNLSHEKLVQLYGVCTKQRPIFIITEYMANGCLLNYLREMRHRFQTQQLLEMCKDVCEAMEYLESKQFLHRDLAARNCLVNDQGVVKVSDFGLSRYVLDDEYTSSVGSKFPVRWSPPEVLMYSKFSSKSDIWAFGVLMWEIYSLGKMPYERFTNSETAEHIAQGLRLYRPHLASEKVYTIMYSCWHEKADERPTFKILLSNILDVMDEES

Row | IC50 [1] [nM] | IC50 [2] [nM] | IC50 [3] [nM] | IC50 [4] [nM] | IC50 [5] [nM] | IC50 [6] [nM] | SMILES | TGI [7] [%] | TGI [8] [%] | TGI ([8]; listed as Ibrahim) [%]
1 | 34 | 20 | 8 | 1.8 | 6 | 2.9 | CS(=O)(=O)CCc1cn2cc(NC(=O)c3coc(-c4ccnc(N)c4)n3)c(-c3ccccc3)cc2n1 [WX013] |  |  | 
2 |  |  |  |  |  |  | C=CC(=O)N1CCC[C@@H](n2nc(-c3ccc(Oc4ccccc4)cc3)c3c(N)ncnc32)C1 [ibrutinib, reference compound] | 39 | 12.95 | 13
